The record followed here is patent publication US20240199683A1, “ANDROGEN RECEPTOR MODULATORS” (priority 2021, published 2024).

In test [1] the target is T1, human AR (Homo sapiens, UniProt P10275).
T1 construct: purchased Indigo Biosciences
T1 sequence (P10275 1-920): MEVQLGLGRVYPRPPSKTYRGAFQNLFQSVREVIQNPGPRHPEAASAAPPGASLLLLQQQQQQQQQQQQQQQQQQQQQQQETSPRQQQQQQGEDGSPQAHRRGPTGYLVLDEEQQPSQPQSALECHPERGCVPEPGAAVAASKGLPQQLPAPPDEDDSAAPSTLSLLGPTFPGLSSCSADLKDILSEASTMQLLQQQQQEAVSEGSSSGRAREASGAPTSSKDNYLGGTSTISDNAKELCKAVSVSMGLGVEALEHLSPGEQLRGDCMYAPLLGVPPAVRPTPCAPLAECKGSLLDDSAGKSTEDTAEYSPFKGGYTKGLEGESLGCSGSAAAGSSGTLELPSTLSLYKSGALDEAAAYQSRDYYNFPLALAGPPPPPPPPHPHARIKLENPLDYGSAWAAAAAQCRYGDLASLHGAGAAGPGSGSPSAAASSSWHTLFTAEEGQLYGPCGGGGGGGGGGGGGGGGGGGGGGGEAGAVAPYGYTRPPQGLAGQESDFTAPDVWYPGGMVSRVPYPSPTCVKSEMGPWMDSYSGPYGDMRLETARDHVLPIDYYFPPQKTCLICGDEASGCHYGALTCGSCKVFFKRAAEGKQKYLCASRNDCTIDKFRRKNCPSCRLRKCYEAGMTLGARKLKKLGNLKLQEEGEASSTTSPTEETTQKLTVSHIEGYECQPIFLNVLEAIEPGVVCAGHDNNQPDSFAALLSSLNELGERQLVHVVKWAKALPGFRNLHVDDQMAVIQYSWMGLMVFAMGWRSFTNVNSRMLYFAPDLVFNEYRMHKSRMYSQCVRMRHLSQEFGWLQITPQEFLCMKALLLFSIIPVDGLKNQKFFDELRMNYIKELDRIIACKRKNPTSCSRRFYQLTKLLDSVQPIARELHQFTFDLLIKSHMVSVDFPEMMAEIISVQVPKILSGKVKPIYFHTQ
Put plainly: human AR antagonist assay (Indigo Biosciences). The class given is cell-based. The source says: (§1) The activity of a compound can be determined using various known methods. For example, AR assays can be used. Such AR assays include binding assays using, for example, cells transfected with the human androgen receptor. Several cell based model systems that allow sensitive detection and monitoring of steroids or other compounds with AR bioactivity are known. Most cell based AR reporter models use transgenic gene constructs that include an androgen response element (ARE) that controls reporter gene (e.g., lucifersrase) expression. For example, a human AR Reporter Assay System is commercially available from Indigo Biosciecnes. The principle application of such an assay product is to quantify functional activities, either agonist or antagonist, that a compound may exert against the human androgen receptor. […] In addition, the anti-proliferative activity of a compound can be determined using various known methods, including in vitro and in vivo antiproliferative assays using cancer cell lines such as a prostate cancer cell line.
(§2) The activity of certain compounds were tested in a human AR agonist assay and a human AR antagonist assay (Indigo Biosciences).

Test [2] addresses T1, human AR. Put plainly: human AR agonist assay (Indigo Biosciences). The class given is cell-based.
Text: as §1, §2

Test [3] addresses T2, androgen receptor (Homo sapiens, UniProt P10275).
T2 sequence (P10275 1-920): T1 sequence (P10275 1-920)
Nature of the test: Ki of Table A (method not described; AR binding assays mentioned generally).
Text: as §1

Setting [4] is: Table A, values match the human AR antagonist assay.

In test [1] (Table 4, antagonist mode), `CC(C)(O)C(=O)Nc1ccc([N+](=O)[O-])c(C(F)(F)F)c1` [hydroxyflutamide, reference compound] showed a HillSlope of 1.282.

In the case of `C[C@]12CC[C@@]3(C)C(=C1C[C@H](O)C2)CCC1=CC(=O)CC[C@@H]13` [Compound 103, (9R,10S,13R,16R)-16-hydroxy-9,13-dimethyl-1,2,6,7,9,10,11,12,13,15,16,17-dodecahydro-3H-cyclopenta[a]phenanthren-3-one], in test [2], the midpoint of the response, the EC50, lay at 8950 µM. In other words, the millimolar range.

For `C[C@]12CCC3=C(CC[C@@H]4CC(=O)CC[C@]34C)[C@@]13C[C@H]3[C@@H](O)C2` [Compound 203], in test [1] (Table 4, antagonist mode), the HillSlope turned out to be 1.202 and the IC50 came out at 1.18 µM. In test [1] (setting [4]), the IC50 turned out to be 1.18 µM.

In the case of `C[C@]12CCC(=O)C=C1CCC1=C2CC[C@]2(C)C[C@H](O)[C@@H]3C[C@@]132` [Compound 201], the HillSlope in test [1] (Table 4, antagonist mode) is listed as 1.375. Moreover, in test [1] (setting [4]), the IC50 was found to be 0.218 µM. This compound also gave an inhibition constant Ki in test [3] of 1.4 µM.

For the compound `C[C@]12CC[C@@]3(C)C(=C1C[C@H](O)C2)CC[C@H]1CC(=O)CC[C@@H]13` [Compound 109], it took 6.8 µM to reach half-maximal inhibition in test [1] (setting [4]) (IC50). This lies in the single-digit micromolar range.

Regarding `C[C@]12CCC3=C(CC[C@H]4CC(=O)CC[C@]34C)[C@@]13C[C@H]3[C@@H](O)C2` [Compound 202, (2S,2aR,3aR,5aS,9aS,11aR)-2-hydroxy-9a, 11a-dimethyl-1,2a,3,4,5a,6,8,9,9a,10,11,11a-dodecahydro-2H-cyclopropa[1,5]cyclopenta[1,2-a]phenanthren-7(5H)-one], in test [1] (Table 4, antagonist mode), the HillSlope is on record as 1.360 and the IC50 was 0.0605 µM. In test [1] (setting [4]), this compound showed an IC50 of 0.061 µM. The compound also returned a Ki in test [3] of 0.837 µM.

Take `C[C@]12CC[C@@]3(C)C(=C1C[C@@H](O)C2)CC[C@H]1CC(=O)CC[C@@H]13` [Compound 106]: the IC50 in test [1] (setting [4]) turned out to be 1.8 µM.
